Results on 24 compounds are retold here after patent US20230257376A1, “ROCK INHIBITOR, AND PREPARATION METHOD THEREFOR AND USE THEREOF” (WUHAN LL SCIENCE AND TECHNOLOGY DEVELOPMENT CO., LTD., priority 2020, published 2023).

A value given as a limit tells only on which side of the number the result lay.

One experiment deals with T1, ROCK2 kinase (Homo sapiens, UniProt O75116).
T1 construct: purchased Invitrogen PV3759
As to the kind of experiment: In vitro evaluation of ROCK2 kinase activity (HTRF KinEASE-STK time-resolved fluorometric assay). The conditions noted are these: ROCK2 kinase 0.4 ng/μL, ATP 6.739 μM. The class given is biochemical. Here is the method:
ROCK2 activity screening. ROCK2 activity was detected using a 96-well (Cisbio) time-resolved fluorometric assay. The assay for ROCK2 was performed in the following assay buffer: 5 mM MgCl2 (Sigma), 1 mM DTT (Sigma) and 1× kinase buffer. The kinase buffer was used for dilution. 7.5 μL of ROCK2 kinase (Invitrogen, PV3759) was added to a 96-well microplate to reach a final concentration of 0.4 ng/μL, and then 0.25 μL of test compound (DMSO content: 1% (volume fraction)) was added. The mixture was incubated at room temperature for 0.5 h. To start the reaction, the kinase buffer was used to mix ATP (Aladdin) and the substrate STK-substrate 2-biotin. 7.5 μL of the mixed solution was added to the microplate to reach final concentrations of 6.739 μM and 1 μM. The resulting mixture was incubated at room temperature for 2 h. 5 mL of detection buffer was mixed with STK antibody-Cryptate, and then an appropriate volume of the mixture was mixed with an equal volume of streptavidin-XL665. 10 μL of the resulting mixture was added to the microplate to stop the reaction. After further incubation for about 1 h, the microplate was read on a Molecular Devices SpectraMax i3x multifunctional microplate reader. The kinase buffer, the STK-substrate 2-biotin, the detection buffer, the STK antibody-Cryptate, and the streptavidin-XL665 were all from HTRF KinEASE-STK kit (Cisbio, 1000 tests, 61GSTXLA).
For orientation: Time-resolved FRET reads energy transfer from a long-lived donor to a nearby acceptor.

A further experiment deals with T2, ROCK1 kinase (Homo sapiens, UniProt Q13464).
T2 construct: purchased Invitrogen
As to the kind of experiment: In vitro evaluation of ROCK1 kinase selectivity (HTRF KinEASE-STK time-resolved fluorometric assay). The note with it: ROCK1 kinase 0.4 ng/μL, ATP 3.53 μM. The class given is biochemical. Here is the method:
ROCK1 activity was detected using a 96-well (Cisbio) time-resolved fluorometric assay. The assay for ROCK1 was performed in the following assay buffer: 5 mM MgCl2 (Sigma), 1 mM DTT (Sigma) and 1× kinase buffer. The kinase buffer was used for dilution. 7.5 μL of ROCK1 kinase (Invitrogen) was added to a 96-well microplate to reach a final concentration of 0.4 ng/μL, and then 0.25 μL of test compound (DMSO content: 1%) was added. The mixture was incubated at room temperature for 0.5 h. To start the reaction, the kinase buffer was also used to mix ATP (Aladdin) and the substrate STK-substrate 2-biotin. 7.5 μL of the mixed solution was added to the microplate to reach final concentrations of 3.53 μM and 1 μM. The resulting mixture was incubated at room temperature for 2 h. 5 mL of detection buffer was mixed with STK antibody-Cryptate, and then an appropriate volume of the mixture was mixed with an equal volume of streptavidin-XL665. 10 μL of the resulting mixture was added to stop the reaction. After further incubation for about 1 h, the microplate was read on a Molecular Devices SpectraMax i3x multifunctional microplate reader. The kinase buffer, the STK-substrate 2-biotin, the detection buffer, the STK antibody-Cryptate, and the streptavidin-XL665 were all from HTRF KinEASE-STK kit (Cisbio, 1000 tests, 61GSTXLA).

T2 sequence (Q13464 whole entry): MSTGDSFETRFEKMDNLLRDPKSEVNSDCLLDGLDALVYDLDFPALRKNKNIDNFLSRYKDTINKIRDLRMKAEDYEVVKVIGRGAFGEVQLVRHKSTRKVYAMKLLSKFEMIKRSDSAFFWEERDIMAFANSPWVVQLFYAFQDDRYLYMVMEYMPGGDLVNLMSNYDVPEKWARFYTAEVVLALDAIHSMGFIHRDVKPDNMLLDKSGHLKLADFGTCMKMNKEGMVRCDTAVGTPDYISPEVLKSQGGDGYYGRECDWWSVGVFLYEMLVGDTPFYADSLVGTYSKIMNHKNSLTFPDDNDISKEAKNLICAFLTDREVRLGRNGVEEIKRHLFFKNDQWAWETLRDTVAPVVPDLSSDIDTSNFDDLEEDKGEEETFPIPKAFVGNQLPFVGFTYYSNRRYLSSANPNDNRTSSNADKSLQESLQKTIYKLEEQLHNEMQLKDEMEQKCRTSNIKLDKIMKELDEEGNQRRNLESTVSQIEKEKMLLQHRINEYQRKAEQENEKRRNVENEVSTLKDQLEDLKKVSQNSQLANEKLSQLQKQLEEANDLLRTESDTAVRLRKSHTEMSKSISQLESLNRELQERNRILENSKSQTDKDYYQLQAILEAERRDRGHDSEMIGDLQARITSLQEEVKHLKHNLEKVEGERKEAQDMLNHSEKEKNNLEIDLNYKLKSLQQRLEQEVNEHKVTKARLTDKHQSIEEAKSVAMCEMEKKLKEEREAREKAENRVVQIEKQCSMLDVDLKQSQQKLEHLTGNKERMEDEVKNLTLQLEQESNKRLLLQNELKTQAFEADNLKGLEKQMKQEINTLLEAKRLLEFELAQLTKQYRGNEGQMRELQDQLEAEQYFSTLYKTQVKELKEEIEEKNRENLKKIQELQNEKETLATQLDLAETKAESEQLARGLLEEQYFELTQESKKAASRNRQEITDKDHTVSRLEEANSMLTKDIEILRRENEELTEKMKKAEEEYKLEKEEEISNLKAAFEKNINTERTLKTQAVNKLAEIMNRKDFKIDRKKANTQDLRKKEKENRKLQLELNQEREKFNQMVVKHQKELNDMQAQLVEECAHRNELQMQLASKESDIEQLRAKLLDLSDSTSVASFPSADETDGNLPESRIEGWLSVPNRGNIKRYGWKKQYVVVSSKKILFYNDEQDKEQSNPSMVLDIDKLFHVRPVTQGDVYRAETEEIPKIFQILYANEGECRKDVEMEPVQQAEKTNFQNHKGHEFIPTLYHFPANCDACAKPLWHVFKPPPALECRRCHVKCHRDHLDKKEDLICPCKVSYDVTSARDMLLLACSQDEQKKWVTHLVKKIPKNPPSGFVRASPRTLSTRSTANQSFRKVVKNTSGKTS
T1 sequence (O75116 whole entry): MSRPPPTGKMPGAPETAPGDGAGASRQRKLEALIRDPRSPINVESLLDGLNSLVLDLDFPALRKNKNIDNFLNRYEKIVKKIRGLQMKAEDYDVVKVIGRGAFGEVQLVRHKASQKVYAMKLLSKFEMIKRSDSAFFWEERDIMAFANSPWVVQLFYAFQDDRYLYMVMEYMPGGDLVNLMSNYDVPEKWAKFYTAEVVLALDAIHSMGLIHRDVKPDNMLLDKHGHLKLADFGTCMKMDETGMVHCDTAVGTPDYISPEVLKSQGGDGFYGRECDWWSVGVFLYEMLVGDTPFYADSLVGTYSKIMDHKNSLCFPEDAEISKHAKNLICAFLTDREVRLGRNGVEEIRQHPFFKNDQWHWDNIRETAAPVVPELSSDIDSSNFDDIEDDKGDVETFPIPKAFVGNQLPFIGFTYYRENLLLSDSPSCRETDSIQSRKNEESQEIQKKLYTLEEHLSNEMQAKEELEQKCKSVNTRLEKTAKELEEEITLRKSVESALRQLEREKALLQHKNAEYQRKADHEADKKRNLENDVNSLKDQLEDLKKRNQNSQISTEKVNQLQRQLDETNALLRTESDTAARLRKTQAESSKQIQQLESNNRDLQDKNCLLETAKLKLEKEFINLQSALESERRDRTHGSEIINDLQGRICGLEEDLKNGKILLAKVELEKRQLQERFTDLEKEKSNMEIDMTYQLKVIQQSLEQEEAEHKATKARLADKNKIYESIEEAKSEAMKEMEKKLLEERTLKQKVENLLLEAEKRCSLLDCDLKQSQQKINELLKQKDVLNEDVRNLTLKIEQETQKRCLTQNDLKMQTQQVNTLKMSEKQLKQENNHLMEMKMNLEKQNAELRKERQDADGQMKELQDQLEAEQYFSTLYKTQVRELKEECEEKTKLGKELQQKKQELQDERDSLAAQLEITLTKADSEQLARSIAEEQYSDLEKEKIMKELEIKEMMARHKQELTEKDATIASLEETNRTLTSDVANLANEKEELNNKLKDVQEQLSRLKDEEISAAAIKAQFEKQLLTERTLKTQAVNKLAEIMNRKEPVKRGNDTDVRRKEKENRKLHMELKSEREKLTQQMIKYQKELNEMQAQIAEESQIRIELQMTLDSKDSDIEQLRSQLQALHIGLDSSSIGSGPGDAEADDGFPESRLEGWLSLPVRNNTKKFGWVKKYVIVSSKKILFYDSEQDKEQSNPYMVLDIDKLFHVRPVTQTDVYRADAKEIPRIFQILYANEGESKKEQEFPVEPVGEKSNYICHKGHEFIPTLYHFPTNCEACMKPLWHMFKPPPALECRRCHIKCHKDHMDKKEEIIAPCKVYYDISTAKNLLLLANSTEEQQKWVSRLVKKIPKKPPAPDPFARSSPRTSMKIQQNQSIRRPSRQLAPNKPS

The IC50 is the concentration that inhibits the measured activity by half. In the case of `Cn1c(C(=O)O)cc2c1CN(c1nccc(Nc3ccc(-c4cn[nH]c4)cc3)n1)CC2` [Compound L001, 6-(4-((4-(1H-pyrazol-4-yl)phenyl)amino)pyrimidin-2-yl)-1-methyl-4,5,6,7-tetrahydro-1H-pyrrolo[2,3-c]pyridine-2-carboxylic Acid], the IC50 at ROCK2 kinase is over 4500 nM.
Still for that read-out and setting: the value for `O=C(O)c1cn2c(n1)CN(c1nccc(Nc3ccc(-c4cn[nH]c4)cc3)n1)CC2` [Compound L002, 7-(4-((4-(1H-pyrazol-4-yl)phenyl)amino)pyrimidin-2-yl)-5,6,7,8-tetrahydroimidazo[1,2-a]pyrazine-2-carboxylic Acid] was over 4500 nM; that for `O=C(c1cc2n(n1)CCN(c1nccc(Nc3ccc(-c4cn[nH]c4)cc3)n1)C2)N1CC(F)(F)C1` [Compound L003, (5-(4-((4-(1H-pyrazol-4-yl)phenyl)amino)pyrimidin-2-yl)-4,5,6,7-tetrahydropyrazolo[1,5-a]pyrazin-2-yl)(3,3-difluoroazetidin-1-yl)methanone] was over 4500 nM.
As to `Cn1c(C(=O)NC2CC(F)(F)C2)cc2c1CN(c1nccc(Nc3ccc(-c4cn[nH]c4)cc3)n1)CC2` [Compound L004, 6-(4-((4-(1H-pyrazol-4-yl)phenyl)amino)pyrimidin-2-yl)-N-(3,3-difluorocyclobutyl)-1-methyl-4,5,6,7-tetrahydro-1H-pyrrolo[2,3-c]pyridine-2-carboxamide], the IC50 lay in the range of 50 to 500 nM at ROCK2 kinase and 0.5 to 4.5 µM against ROCK1 kinase.
The corresponding values for `Cn1c(C(=O)N2CC(F)(F)C2)cc2c1CN(c1nccc(Nc3ccc4[nH]ncc4c3)n1)CC2` [Compound L006, (6-(4-((1H-indazol-5-yl)amino)pyrimidin-2-yl)-1-methyl-4,5,6,7-tetrahydro-1H-pyrrol[2,3-c]pyridin-2-yl)(3,3-difluoroazetidin-1-yl)methanone] are 50 to 500 nM and 0.5 to 4.5 µM.
`Cn1c(C(=O)N2CC(F)(F)C2)cc2c1CN(c1nccc(Nc3ccc(Oc4ncccc4C(N)=O)c(F)c3)n1)CC2` [Compound L007, 2-(4-((2-(2-(3,3-difluoroazetidin-1-carbonyl)-1-methyl-1,4,5,7-tetrahydro-6H-pyrrolo[2,3-c]pyridin-6-yl)pyrimidin-4-yl)amino)-2-fluorophenoxy)nicotinamide] gave an IC50 against ROCK2 kinase of 500 to 4500 nM.
Turning to `O=C(NC1CC(F)(F)C1)c1cn2c(n1)CN(c1nccc(Nc3ccc(-c4cn[nH]c4)cc3)n1)CC2` [Compound L008, 7-(4-((4-(1H-pyrazol-4-yl)phenyl)amino)pyrimidin-2-yl)-N-(3,3-difluorocyclobutyl)-5,6,7,8-tetrahydroimidazo[1,2-a]pyrazine-2-carboxamide], the 50% inhibitory concentration (IC50) against ROCK2 kinase was at most 50 nM; at ROCK1 kinase, over 4.5 µM.
In turn, `CC(C)NC(=O)c1cc2c(n1C)CN(c1nccc(Nc3ccc(-c4cn[nH]c4)cc3)n1)CC2` [Compound L009, 6-(4-((4-(1H-pyrazol-4-yl)phenyl)amino)pyrimidin-2-yl)-N-isopropyl-1-methyl-4,5,6,7-tetrahydro-1H-pyrrolo[2,3-c]pyridine-2-carboxamide] displayed an IC50 against ROCK2 kinase of 500 to 4500 nM.
Take `Cn1c(C(=O)N2CC(C#N)C2)cc2c1CN(c1nccc(Nc3ccc(-c4cn[nH]c4)cc3)n1)CC2` [Compound L010, 1-(6-(4-((4-(1H-pyrazol-4-yl)phenyl)amino)pyrimidin-2-yl)-1-methyl-4,5,6,7-tetrahydro-1H-pyrrolo[2,3-c]pyridin-2-carbonyl)azetidine-3-carbonitrile]: the IC50 on ROCK2 kinase is at most 50 nM; on ROCK1 kinase, over 4.5 µM.
With `O=C(c1ccc2nn(-c3nccc(Nc4ccc(-c5cn[nH]c5)cc4)n3)cc2c1)N1CC(F)(F)C1` [Compound L011, (2-(4-((4-(1H-pyrazol-4-yl)phenyl)amino)pyrimidin-2-yl)-2H-indazol-5-yl)(3,3-difluoroazetidin-1-yl)methanone], the half-inhibitory concentration (IC50) against ROCK2 kinase was 500 to 4500 nM.
For `Cn1c(C(=O)Nc2ccnnc2)cc2c1CN(c1nccc(Nc3ccc(-c4cn[nH]c4)cc3)n1)CC2` [Compound L012, 6-(4-((4-(1H-pyrazol-4-yl)phenyl)amino)pyrimidin-2-yl)-1-methyl-N-(pyridazin-4-yl)-4,5,6,7-tetrahydro-1H-pyrrolo[2,3-c]pyridine-2-carboxamide], the IC50 on ROCK2 kinase fell in the range of 50 to 500 nM; on ROCK1 kinase, 0.05 to 0.5 µM.
`O=C(O)c1cc2n(c1)CCN(c1nccc(Nc3ccc(-c4cn[nH]c4)cc3)n1)C2` [Compound L013, 2-(4-((4-(1H-pyrazol-4-yl)phenyl)amino)pyrimidin-2-yl)-1,2,3,4-tetrahydropyrrolo[1,2-a]pyrazine-7-carboxylic Acid] returned an IC50 on ROCK2 kinase of over 4500 nM.
On the same count and under the same terms, under `CN(C(=O)c1cc2c(n1C)CN(c1nccc(Nc3ccc(-c4cn[nH]c4)cc3)n1)CC2)C1CC(F)(F)C1` [Compound L014, 6-(4-((4-(1H-pyrazol-4-yl)phenyl)amino)pyrimidin-2-yl)-N-(3,3-difluorocyclobutyl)-N,1-dimethyl-4,5,6,7-tetrahydro-1H-pyrrolo[2,3-c]pyridine-2-carboxamide] stands over 4500 nM.
Regarding `O=C(c1cn2c(n1)CN(c1nccc(Nc3ccc(-c4cn[nH]c4)cc3)n1)CC2)N1CC(F)(F)C1` [Compound L015], the IC50 at ROCK2 kinase is 50 to 500 nM; at ROCK1 kinase, over 4.5 µM.
Taken in the same sequence, the figures for `Cn1c(C(=O)N2CC(F)(F)C2)cc2c1CN(c1nccc(Nc3ccc(-c4c[nH]nc4F)c(F)c3)n1)CC2` [Compound L016, (3,3-difluoroazetidin-1-yl)(6-(4-((3-fluoro-4-(3-fluoro-1H-pyrazol-4-yl)phenyl)amino)pyrimidin-2-yl)-1-methyl-4,5,6,7-tetrahydro-1H-pyrrolo[2,3-c]pyridin-2-yl)methanone] were at most 50 nM and over 4.5 µM.
As for `Cn1c(C(=O)N2CC(F)(F)C2)cc2c1C(C)(C)N(c1nccc(Nc3ccc(-c4cn[nH]c4)cc3)n1)CC2` [Compound L018], the figures for the half-inhibitory concentration (IC50) on ROCK2 kinase and at ROCK1 kinase were 50 to 500 nM and over 4.5 µM, respectively.
Taken in the same sequence, the figures for `Cn1c(C(=O)N2CC(F)(F)C2)cc2c1CN(c1nccc(Nc3ccc(-c4cn[nH]c4)cc3)n1)CC2(C)C` [Compound L020, (6-(4-((4-(1H-pyrazol-4-yl)phenyl)amino)pyrimidin-2-yl)-1,4,4-trimethyl-4,5,6,7-tetrahydro-1H-pyrrolo[2,3-c]pyridin-2-yl)(3,3-difluoroazetidin-1-yl)methanone] were 50 to 500 nM and over 4.5 µM.
In the case of `Cn1c(C(=O)NC2CCN(c3ccncc3Cl)CC2)cc2c1CN(c1nccc(Nc3ccc(-c4cn[nH]c4)cc3)n1)CC2` [Compound L021], the IC50 against ROCK2 kinase is 50 to 500 nM; on ROCK1 kinase, over 4.5 µM.
Regarding `CN(C(=O)c1cn2c(n1)CN(c1nccc(Nc3ccc(-c4cn[nH]c4)cc3)n1)CC2)C1CC(F)(F)C1` [Compound L022], the IC50 on ROCK2 kinase fell in the range of 500 to 4500 nM.
`Cn1c(C(=O)Nc2cnccc2F)cc2c1CN(c1nccc(Nc3ccc(-c4cn[nH]c4)cc3)n1)CC2` [Compound L023]: the concentration for half-maximal inhibition (IC50) at ROCK2 kinase fell in the range of 50 to 500 nM; against ROCK1 kinase it was 0.5 to 4.5 µM.
Taken in the same sequence, the figures for `Cn1c(C(=O)N2C[C@@H](O)[C@@H](F)C2)cc2c1CN(c1nccc(Nc3ccc(-c4cn[nH]c4)cc3)n1)CC2` [Compound L024] were at most 50 nM and 0.5 to 4.5 µM.
In turn, `O=C(c1cc2n(c1)CCN(c1nccc(Nc3ccc(-c4cn[nH]c4)cc3)n1)C2)N1CC(F)(F)C1` [Compound L025, (2-(4-((4-(1H-pyrazol-4-yl)phenyl)amino)pyrimidin-2-yl)-1,2,3,4-tetrahydropyrrolo[1,2-a]pyrazin-7-yl)(3,3-difluoroazetidin-1-yl)methanone] yielded an IC50 against ROCK2 kinase of over 4500 nM.
Take `O=C(c1ccc2c(c1)CN(c1nccc(Nc3ccc(-c4cn[nH]c4)cc3)n1)CC2)N1CC(F)(F)C1` [Compound L028, (2-(4-((4-(1H-pyrazol-4-yl)phenyl)amino)pyrimidin-2-yl)-1,2,3,4-tetrahydroisoquinolin-7-yl)(3,3-difluoroazetidin-1-yl)methanone]: the results for the IC50 against ROCK2 kinase and on ROCK1 kinase were 500 to 4500 nM and over 4.5 µM, respectively.
Taken in the same sequence, the figures for `O=C(c1ccc2c(c1)CCN(c1nccc(Nc3ccc(-c4cn[nH]c4)cc3)n1)C2)N1CC(F)(F)C1` [Compound L029] were 500 to 4500 nM and over 4.5 µM.
